Laboratory results as given in ChEMBL document CHEMBL3525963, “Tissue distribution and elimination of [14C]apixaban in rats” (Drug Metab Dispos, 2011).

What was measured:
[1] = Drug level in urine of Sprague-Dawley rat treated with [14C]apixaban at 30 mg/kg, po assessed as compound level by HPLC method; conditions: in vivo
[2] = Drug level in feces of Sprague-Dawley rat treated with [14C]apixaban at 30 mg/kg, po assessed as compound level by HPLC method; conditions: in vivo

- Compound recovery [1]: 2%
- Compound recovery [2]: 13%
SMILES: NC(=O)c1nn(-c2ccc(O)cc2)c2c1CCN(c1ccc(N3CCCC[14C]3=O)cc1)C2=O
